60 compounds from ChEMBL document CHEMBL5344444, “1-Benzylindoles as inhibitors of cytosolic phospholipase A2α: synthesis, biological activity, aqueous solubility, and cell permeability” (RSC Med Chem, 2024) can be followed below.

Series [1] is described as follows: Lipophilicity, logP of compound in acetonitrile/phosphate buffered saline at pH 7.4 by RP-HPLC analysis. In kind it is physicochemical.
Series [2] in a line: Drug metabolism in human CaCo-2 cells assessed as beta-oxidation of pentanoic acid chain by measuring 3-(5-{[5-Chloro-1-(2,4-dichlorobenzyl)indol-3-yl]methyl}-2H-tetrazol-2-yl) propionic acid formation at 10 uM. The note with it: caco-2, 10 µM. In kind it is ADME, cell-based.
Series [3] in a line: Aqueous solubility of compound in phosphate buffered saline at pH 7.4 incubated for 10 min by RP-HPLC analysis. In kind it is physicochemical.
Series [4] can be described thus: Apparent permeability coefficient in human CaCo-2 cells at 10 uM incubated for 2 hrs by HPLC-MS analysis. It is filed as ADME, cell-based.
The nature of series [5]: Inhibition of porcine platelets cPLA2 alpha using 1-stearoyl-2-arachidonoyl-sn-glycero-3-phosphocholine as substrate incubated for 60 mins by RP-HPLC -MS analysis. The arrangement: species or system Sus scrofa.
The species named for series [6] is Sus scrofa. Briefly: Inhibition of porcine platelets cPLA2 alpha using 1-stearoyl-2-arachidonoyl-sn-glycero-3-phosphocholine as substrate at 10 uM incubated for 60 mins by RP-HPLC -MS analysis relative to control.

Usually logP stands for the decadic logarithm of the partition coefficient of the neutral form, usually between octanol and water. Read a high logP as higher lipophilicity. As usually defined, the solubility is the dissolved amount per volume that the medium holds. Read a high solubility as a readily soluble substance. As a reminder, the Papp is the rate of passage across a membrane or cell layer, normalised by area and donor concentration. A word on the IC50: it is the concentration at which inhibition is half-maximal. High values mean a need for much substance, low ones inhibition by little substance. By inhibition is commonly meant the relative decrease from the control value, in per cent.

In brackets after ≈: the same amount, converted by molar mass. Activity calls are given as the source filed them. The calls are words filed in the database; no cut-off is given here. A value given as a limit tells only on which side of the number the result lay.

In turn, `O=C(O)CCCCn1nnc(Cc2cn(Cc3ccc(Cl)cc3Cl)c3ccc(Cl)cc23)n1` registered a logP in series [1] of 4.7. The Drug metabolism result in series [2] is on record as “Metabolite_Detected”. The same compound displayed a solubility at 10 min in series [3] below 1 µg/mL. Also, in series [4], the Papp at 2 h, 10 µM was 15 ×10⁻⁶ cm/s. Half-maximal inhibition in series [5] (IC50) required 0.071 µM. `O=C(O)c1ccc(OC(=O)c2cn(Cc3ccc(Cl)cc3Cl)c3ccccc23)cc1` came in with an inhibition in series [6] of 45%. In addition, in series [5], the IC50 was above 10 µM. In the same order, the values of `O=C(O)c1ccc2c(c1)c(C(=O)O)cn2CCc1cn(Cc2ccc(Cl)cc2Cl)c2ccccc12` are 24% and above 10 µM. The compound `O=C(O)CCCCn1nnc(Cc2cn(Cc3ccc(Cl)cc3Cl)c3ccc(OCc4ccc(Cl)cc4)cc23)n1` came in with an IC50 in series [5] of 5.3 µM. `O=C(O)c1ccc(N/N=C/c2cn(Cc3ccc(C(F)(F)F)cc3)c3ccccc23)cc1` displayed an inhibition in series [6] of 15%. Turning to `O=C(O)CCCCn1nnc(Cc2cn(Cc3cccc(Cl)c3)c3ccccc23)n1`, the inhibition in series [6] amounted to 33%. In series [5], this compound registered an IC50 above 10 µM. As to `O=C(O)c1ccc(N/N=C/c2cn(Cc3ccccc3Oc3ccccc3)c3ccccc23)cc1`, in series [6], the inhibition amounted to 15%. In series [5], `O=C(CCc1cn(Cc2ccc(Cl)cc2Cl)c2ccccc12)Oc1ccc(C(=O)O)cc1` registered an IC50 of 6 µM. For the compound `O=C(O)c1ccc(Cn2nnc(-c3cn(Cc4ccc(Cl)cc4Cl)c4ccccc34)n2)cc1`, the inhibition in series [6] came to 37%. The compound also displayed an IC50 in series [5] above 10 µM. In the same order, the values of `O=C(O)CCCn1nnc(CCc2cn(Cc3ccc(Cl)cc3Cl)c3ccccc23)n1` are 23% and above 10 µM. For `O=C(O)CCCCn1nnc(Cc2cn(Cc3ccc(Cl)cc3Cl)c3cc(F)ccc23)n1`, in series [5], the IC50 was found to be 0.75 µM.

With `O=C(O)CCCCn1nnc(Cc2cn(Cc3ccc(Cl)cc3Cl)c3cc(C(F)(F)F)ccc23)n1`, in series [5], the IC50 was determined as 0.17 µM. The same measure, in the same setting: then `O=C(O)CCCCn1nnc(Cc2cn(Cc3ccc(Cl)cc3Cl)c3ccc(OC(F)(F)F)cc23)n1`, with 0.57 µM.

In turn, `O=C(O)CCc1ccc2c(c1)c(CCc1ccccc1)cn2-c1ccc(Oc2ccccc2)cc1` returned a log partition coefficient (logP) in series [1] of 6.4. The compound further returned a solubility at 10 min in series [3] below 1 µg/mL. The compound also showed an IC50 in series [5] of 0.29 µM. Regarding `Cc1noc(-c2cn(CCc3cn(Cc4ccc(Cl)cc4Cl)c4ccccc34)c3ccc(C(=O)O)cc23)n1`, the inhibition in series [6] amounted to 47%. In series [5], this compound returned an IC50 above 10 µM. Regarding `O=C(O)CCCCCn1nnc(-c2cn(Cc3ccc(Cl)cc3Cl)c3ccccc23)n1`, in series [5], the IC50 is 9 µM. On to `O=C(O)c1ccc2c(ccn2CCc2cn(Cc3ccc(Cl)cc3Cl)c3ccccc23)c1`, for which, in series [6], the inhibition was found to be 41%. In series [5], the IC50 was above 10 µM. `O=C(O)CCCCn1nnc(Cc2cn(Cc3ccc(Cl)cc3Cl)c3ccc(-c4ccc(Cl)cc4)cc23)n1` yielded an IC50 in series [5] of 0.9 µM. In turn, `O=C(O)CCCCn1nnc(Cc2cn(Cc3ccc(Cl)cc3Cl)c3ccc(C(F)(F)F)cc23)n1` yielded a logP in series [1] of 4.9. In series [3], this compound displayed a solubility at 10 min below 1 µg/mL. In addition, the IC50 in series [5] was 0.074 µM. With `O=C(O)c1ccc2c(cnn2CCc2cn(Cc3ccc(Cl)cc3Cl)c3ccccc23)c1`, in series [5], the IC50 amounted to 3.8 µM. For `O=C(O)c1ccc(N/N=C/c2ccc3c(ccn3Cc3ccc(Cl)cc3Cl)c2)cc1`, in series [6], the inhibition worked out at 30%.

With `COC(=O)c1cn(CCc2cn(Cc3ccc(Cl)cc3Cl)c3ccccc23)c2ccc(C(=O)O)cc12`, the IC50 in series [5] amounted to 7.1 µM. In series [6], `O=C(O)CCCCn1nnc(-c2cn(Cc3ccc(Cl)cc3Cl)c3ccccc23)n1` displayed an inhibition of 48%. Also, the IC50 in series [5] was above 10 µM. As to `O=C(O)c1ccc2c(c1)c(C(=O)C(F)(F)F)cn2CCc1cn(Cc2ccc(Cl)cc2Cl)c2ccccc12`, half-maximal inhibition in series [5] (IC50) was put at 8 µM. Same read-out and setting: the value for `Cc1ccc2c(Cc3nnn(CCCCC(=O)O)n3)cn(Cc3ccc(Cl)cc3Cl)c2c1` was 1 µM. As for `O=C(O)CCCCn1nnc(Cc2cn(Cc3ccc(Cl)cc3Cl)c3ccc(F)cc23)n1`, the logP in series [1] is given as 4.1. The compound further returned a solubility at 10 min in series [3] of 74 µg/mL (≈ 155 µM). Besides, in series [5], the IC50 turned out to be 0.2 µM. The compound `O=C(O)c1ccc(N/N=C/c2ccc3ccn(Cc4ccc(Cl)cc4Cl)c3c2)cc1` returned an inhibition in series [6] of 32%. `CN(/N=C/c1cn(Cc2ccc(Cl)cc2Cl)c2ccccc12)c1ccc(C(=O)O)cc1` returned an inhibition in series [6] of 27%. For `O=C(O)CCCCn1nnc(Cc2cn(Cc3ccc(Cl)cc3Cl)c3cc(Cl)ccc23)n1`, inhibition in series [5] was half-maximal at 0.36 µM (IC50). Same read-out and setting: the value for `O=C(O)CCCCn1nnc(Cc2cn(Cc3ccc(Cl)c(Cl)c3)c3ccccc23)n1` was 5.6 µM.

Regarding `Cc1ccc(Cn2cc(Cc3nnn(CCCCC(=O)O)n3)c3ccccc32)cc1`, in series [5], the IC50 was found to be 7 µM.

In series [1], `Cc1c(CCOc2ccc(C(=O)O)cc2)c2cc(Cl)ccc2n1C(c1ccccc1)c1ccccc1` registered a logP of 6.2. In addition, the solubility at 10 min in series [3] was below 1 µg/mL. This compound returned an IC50 in series [5] of 0.23 µM. In series [5], `O=C(O)CCCCn1nnc(CCc2cn(Cc3ccc(Cl)cc3Cl)c3ccccc23)n1` had an IC50 of 4.8 µM. As to `O=C(O)c1ccc(N/N=C/c2cccc3c2ccn3Cc2ccc(Cl)cc2Cl)cc1`, the inhibition in series [6] is 24%. Still for that read-out and setting: then `O=C(O)CCCCn1nnc(Cc2cn(Cc3ccc(C(F)(F)F)cc3)c3ccccc23)n1`, with “inactive”. On to `O=C(O)CCCCn1nnc(Cc2cn(Cc3ccc(F)cc3)c3ccccc23)n1`, for which the inhibition in series [6] was found to be 48%. Further, the IC50 in series [5] was above 10 µM. In the same order, the values of `O=C(O)c1ccc2nn(CCc3cn(Cc4ccc(Cl)cc4Cl)c4ccccc34)cc2c1` are 32% and above 10 µM. `O=C(O)CCCCn1nnc(Cc2cn(Cc3ccc(Cl)cc3)c3ccccc23)n1` came in with an IC50 in series [5] of 4.2 µM. `O=C(O)CCCCn1nnc(Cc2cn(Cc3ccc(Cl)cc3Cl)c3ccccc23)n1` gave a logP in series [1] of 4. In series [3], this compound returned a solubility at 10 min of 152 µg/mL (≈ 332 µM). In series [5], this compound gave an IC50 of 0.71 µM. On to `O=C(O)c1ccc(N/N=C/c2cn(Cc3ccccc3)c3ccccc23)cc1`, for which the inhibition in series [6] came to 16%. In series [6], `O=C(O)c1ccc(N/N=C/c2cn(Cc3ccc(Cl)c(Cl)c3)c3ccccc23)cc1` returned an inhibition of 20%. In series [6], `O=C(O)c1ccc(N/N=C/c2cn(Cc3ccc(Cl)cc3Cl)c3ccccc23)cc1` registered an inhibition of 21%. In series [5], this compound registered an IC50 of 22 µM. `O=C(O)c1ccc(OCCc2cn(Cc3ccc(Cl)cc3Cl)c3ccccc23)cc1` had an IC50 in series [5] of 1.1 µM. On the same count and under the same terms, then `O=C(O)c1ccc2nn(CCc3cn(Cc4ccc(Cl)cc4Cl)c4ccccc34)nc2c1`, with 3.9 µM. Take `COc1ccc2c(c1)c(CC(=O)O)c(C)n2C(=O)c1ccc(Cl)cc1` [INDOMETHACIN]: the logP in series [1] worked out at 2.9. In series [3], the concentration in solution (solubility at 10 min) was 260 µg/mL (≈ 727 µM). Moreover, in series [4], the Papp at 2 h, 10 µM was 27 ×10⁻⁶ cm/s.

As for `O=C(O)CCCCCn1nnc(Cc2cn(Cc3ccc(Cl)cc3Cl)c3ccccc23)n1`, the IC50 in series [5] was 1.4 µM. With `O=C(O)c1ccc(N/N=C/c2cn(Cc3ccc(Oc4ccccc4)cc3)c3ccccc23)cc1`, the inhibition result in series [6] is “inactive”. As for `COc1ccc2c(c1)c(Cc1nnn(CCCCC(=O)O)n1)cn2Cc1ccc(Cl)cc1Cl`, in series [5], the midpoint of inhibition, the IC50, lay at 4.7 µM. As to `O=C(O)c1ccc(N/N=C/c2cn(Cc3cccc(Oc4ccccc4)c3)c3ccccc23)cc1`, the inhibition in series [6] is 17%. Take `O=C(O)CCCCn1nnc(Cc2cn(Cc3ccc(Cl)cc3Cl)c3ccc(-c4ccccc4)cc23)n1`: in series [5], the IC50 came to 3.2 µM. Compound `O=C(O)CCCn1nnc(Cc2cn(Cc3ccc(Cl)cc3Cl)c3ccccc23)n1` gave an inhibition in series [6] of 32%. The compound also yielded an IC50 in series [5] above 10 µM.

Take `O=C(O)CCCCn1nnc(Cc2cn(Cc3c(Cl)cccc3Cl)c3ccccc23)n1`: the inhibition in series [6] turned out to be 19%. This compound also gave an IC50 in series [5] above 10 µM. `COc1ccc2c(Cc3nnn(CCCCC(=O)O)n3)cn(Cc3ccc(Cl)cc3Cl)c2c1` showed an IC50 in series [5] of 4.6 µM.

`O=C(O)CCCCn1nnc(Cc2cn(Cc3ccc(-c4ccccc4)cc3)c3ccccc23)n1` showed an inhibition in series [6] of 47%. In addition, the IC50 in series [5] is above 10 µM. `Cc1ccc2c(c1)c(Cc1nnn(CCCCC(=O)O)n1)cn2Cc1ccc(Cl)cc1Cl` came in with a logP in series [1] of 4.6. Besides, the solubility at 10 min in series [3] came to 15 µg/mL (≈ 31.8 µM). In series [5], the IC50 was 0.21 µM. With `O=C(O)CCCCn1nnc(Cc2cn(Cc3ccccc3)c3ccccc23)n1`, in series [6], the inhibition amounted to 41%. Besides, the IC50 in series [5] was above 10 µM.

In series [6], `O=C(O)CCCn1nnc(-c2cn(Cc3ccc(Cl)cc3Cl)c3ccccc23)n1` had an inhibition of 22%. In addition, the IC50 in series [5] was above 10 µM. Consider `O=C(Cc1cn(Cc2ccc(Cl)cc2Cl)c2ccccc12)Oc1ccc(C(=O)O)cc1`, for which, in series [5], it took 3.2 µM to reach half-maximal inhibition (IC50). `O=C(O)CCCCn1nnc(Cc2cn(Cc3ccccc3Cl)c3ccccc23)n1` had an IC50 in series [5] of 2.9 µM. With `O=C(O)c1ccc(Cn2nnc(Cc3cn(Cc4ccc(Cl)cc4Cl)c4ccccc34)n2)cc1`, in series [5], the IC50 is 2.8 µM.
